# Measured values: article PMC8373216, “Development and Preclinical Evaluation of New Inhaled Lipoglycopeptides for the Treatment of Persistent Pulmonary Methicillin-Resistant Staphylococcus aureus Infections” (Antimicrobial Agents and Chemotherapy, 2021)
# Like-named read-outs stand apart in the source and are kept apart here.
# What was measured:
# Streptococcus anginosus = test: Expanded panel broth microdilution MIC/MBC; format: cell-based; settings: for MIC: Streptococcus anginosus
# E. cloacae = test: Expanded panel broth microdilution MIC; format: cell-based; settings: Enterobacter cloacae
# Haemophilus influenzae = test: Expanded panel broth microdilution MIC; format: cell-based
# [1] = system: Staphylococcus haemolyticus; test: Expanded panel broth microdilution MIC; format: cell-based
# [2] = system: Peptostreptococcus anaerobius; test: Expanded panel broth microdilution MIC; format: cell-based
# Streptococcus agalactiae = test: Expanded panel broth microdilution MIC/MBC; format: cell-based
# Pseudomonas aeruginosa = test: Expanded panel broth microdilution MIC; format: cell-based
# K. pneumoniae = test: Expanded panel broth microdilution MIC; format: cell-based
# E. coli = test: Expanded panel broth microdilution MIC; format: cell-based; settings: Escherichia coli
# S. aureus = test: Expanded panel broth microdilution MIC/MBC; settings: for MIC: Staphylococcus aureus
# [3] = system: Streptococcus dysgalactiae; test: Expanded panel broth microdilution MIC/MBC; format: cell-based; settings: for MIC: Streptococcus dysgalactiae
# [4] = system: Streptococcus constellatus; test: Expanded panel broth microdilution MIC; format: cell-based
# Moraxella catarrhalis = test: Expanded panel broth microdilution MIC; format: cell-based
# Eggerthella lenta = test: Expanded panel broth microdilution MIC; format: cell-based
# P. vulgaris = test: Expanded panel broth microdilution MIC; format: cell-based; settings: Proteus vulgaris
# Streptococcus pyogenes = test: Expanded panel broth microdilution MIC/MBC; format: cell-based
# [5] = system: MRSA ATCC BAA 1556 (USA300) biofilm; test: Static MRSA biofilm killing, plastic microtiter plate, MEM
# H. parainfluenzae = test: Expanded panel broth microdilution MIC; format: cell-based; settings: Haemophilus parainfluenzae
# Acinetobacter baumannii = test: Expanded panel broth microdilution MIC; format: cell-based
# S. marcescens = test: Expanded panel broth microdilution MIC; format: cell-based; settings: Serratia marcescens, ATCC43862
# MSSA ATCC 29213 = test: In-house broth microdilution MIC screening; format: cell-based; settings: Staphylococcus aureus, read-out: MIC Value, MSSA ATCC 29213
# Enterococcus faecalis = test: Expanded panel broth microdilution MIC/MBC; format: cell-based
# Staphylococcus hominis = test: Expanded panel broth microdilution MIC; format: cell-based
# C. freundii = test: Expanded panel broth microdilution MIC; format: cell-based; settings: Citrobacter freundii
# Burkholderia cepacia = test: Expanded panel broth microdilution MIC; format: cell-based
# Streptococcus oralis = test: Expanded panel broth microdilution MIC; format: cell-based
# P. mirabilis = test: Expanded panel broth microdilution MIC; format: cell-based; settings: Proteus mirabilis, ATCC43071
smiles,measurement,setting,value
"CN[C@H](CC(C)C)C(=O)N[C@H]1C(=O)N[C@@H](CC(N)=O)C(=O)N[C@H]2C(=O)N[C@H]3C(=O)N[C@H](C(=O)N[C@H](C(=O)O)c4cc(O)cc(O)c4-c4cc3ccc4O)[C@H](O)c3ccc(c(Cl)c3)Oc3cc2cc(c3O[C@@H]2O[C@H](CO)[C@@H](O)[C@H](O)[C@H]2O[C@H]2C[C@](C)(N)[C@H](O)[C@H](C)O2)Oc2ccc(cc2Cl)[C@H]1O [Vancomycin, vancomycin]",MIC:MBC,Streptococcus anginosus; S. anginosus AGS,>8
same,MIC,Streptococcus anginosus,0.5 µg/mL
same,MIC,Streptococcus anginosus; ATCC33397,0.5 µg/mL
same,MIC,E. cloacae; ATCC49141,> 64 µg/mL
same,MIC,E. cloacae; ATCCBAA1143,> 64 µg/mL
same,MIC,Haemophilus influenzae,64 µg/mL
same,MIC,Haemophilus influenzae; ATCC49247,> 64 µg/mL
same,MIC,[1],1 µg/mL
same,MIC,[1]; ATCC29970,1 µg/mL
same,MIC,[2],0.12 µg/mL
same,MIC,[2]; ATCC27337,0.12 µg/mL
same,MIC,"Streptococcus agalactiae; S. agalactiae MMX 4115, ermR",0.25 µg/mL
same,MIC,"Streptococcus agalactiae; S. agalactiae ermR, 1 isolate",0.25 µg/mL
same,MIC:MBC,"Streptococcus agalactiae; S. agalactiae, MBC on one organism",4
same,MIC,Streptococcus agalactiae; Streptococcus agalactiae,0.25 µg/mL
same,MIC,"Streptococcus agalactiae; Streptococcus agalactiae, ATCC13813",0.25 µg/mL
same,MIC,"Streptococcus agalactiae; Streptococcus agalactiae, read-out: MIC (median)",0.25 µg/mL
same,MIC,Pseudomonas aeruginosa,> 64 µg/mL
same,MIC,Pseudomonas aeruginosa; ATCC27853,> 64 µg/mL
same,MIC,"K. pneumoniae; K. pneumoniae MMX 4679, KPC-2",> 64 µg/mL
same,MIC,K. pneumoniae; Klebsiella pneumoniae,> 64 µg/mL
same,MIC,E. coli,> 64 µg/mL
same,MIC,E. coli; ATCC25922,> 64 µg/mL
same,MIC:MBC,"S. aureus; S. aureus MRSA, MBC median of n = 5",1
same,MIC:MBC,"S. aureus; S. aureus MSSA, MBC on one organism",1
same,MIC:MBC,"S. aureus; S. aureus VISA, MBC median of n = 2",4
same,MIC (median),"S. aureus; S. aureus VRSA, 12 isolates (JMI Laboratories)",>64 µg/mL
same,MIC:MBC,"S. aureus; S. aureus hVISA, MBC on one organism",1
same,MIC,"S. aureus; ATCC13709 / MSSA, S. aureus ATCC 13709, MSSA",1 µg/mL
same,MIC,"S. aureus; ATCC29213 / MSSA, S. aureus ATCC 29213, MSSA",1 µg/mL
same,MIC,"S. aureus; ATCC43300 / MRSA, S. aureus ATCC 43300, MRSA",1 µg/mL
same,MIC,"S. aureus; ATCCBAA1556|MRSA|USA300, S. aureus ATCC BAA-1556, MRSA, USA300 (expanded panel)",0.5 µg/mL
same,MIC,"S. aureus; ATCCBAA1756|MRSA|NRS384|USA300, S. aureus NRS 384, ATCC BAA-1756, MRSA, USA300",0.5 µg/mL
same,MIC,"S. aureus; MRSA / NRS123 / USA400, S. aureus NRS123, MRSA, USA400",0.5 µg/mL
same,MIC,"S. aureus; MRSA / NRS725 / USA300, S. aureus NRS725, MRSA, USA300",0.5 µg/mL
same,MIC,"S. aureus; MRSA / USA300, S. aureus MMX 3982, MRSA, USA300",0.5 µg/mL
same,MIC,"S. aureus; MRSA, S. aureus MMX 7899, MRSA",0.5 µg/mL
same,MIC,"S. aureus; MRSA, S. aureus MMX 7900, MRSA",0.5 µg/mL
same,MIC,"S. aureus; MRSA, S. aureus MMX 7901, MRSA",0.5 µg/mL
same,MIC,"S. aureus; MRSA, S. aureus MMX 7902, MRSA",0.5 µg/mL
same,MIC,"S. aureus; MRSA, S. aureus MMX 7903, MRSA",0.5 µg/mL
same,MIC,"S. aureus; MRSA, read-out: MIC (median), S. aureus MRSA, 12 isolates",0.5 µg/mL
same,MIC,"S. aureus; MSSA, S. aureus MMX 7907, MSSA",0.5 µg/mL
same,MIC,"S. aureus; MSSA, S. aureus MMX 7908, MSSA",0.5 µg/mL
same,MIC,"S. aureus; MSSA, read-out: MIC (median), S. aureus MSSA, 4 isolates",0.75 µg/mL
same,MIC,"S. aureus; NRS1 / VISA, S. aureus NRS1, VISA, Mu50",4 µg/mL
same,MIC,"S. aureus; NRS2, S. aureus NRS2, hVISA;Mu3",1 µg/mL
same,MIC,"S. aureus; NRS4 / VISA, S. aureus NRS4, VISA",4 µg/mL
same,MIC,"S. aureus; NRS13 / VISA, S. aureus NRS13, VISA",2 µg/mL
same,MIC,"S. aureus; NRS22 / VISA, S. aureus NRS22, VISA",4 µg/mL
same,MIC,"S. aureus; NRS23, S. aureus NRS23, hVISA",2 µg/mL
same,MIC,"S. aureus; NRS52 / VISA, S. aureus NRS52, VISA",1 µg/mL
same,MIC,"S. aureus; VISA, read-out: MIC (median), S. aureus VISA, 5 isolates",4 µg/mL
same,MIC,"S. aureus; VRSA, read-out: MIC (median), S. aureus VRSA, 12 isolates (JMI Laboratories)",> 64 µg/mL
same,MIC,"S. aureus; read-out: MIC (median), S. aureus hVISA, 2 isolates",1.5 µg/mL
same,MIC:MBC,"[3]; S. dysgalactiae, MBC on one organism",>8
same,MIC,[3]; S. dysgalactiae MMX 5121,0.25 µg/mL
same,MIC,[3]; S. dysgalactiae MMX 5123,0.25 µg/mL
same,MIC,[3]; S. dysgalactiae MMX 5124,0.25 µg/mL
same,MIC,"[3]; read-out: MIC (median), S. dysgalactiae, 3 isolates",0.25 µg/mL
same,MIC,"[4]; S. constellatus AGS, 1 isolate",0.25 µg/mL
same,MIC,[4]; Streptococcus constellatus,0.25 µg/mL
same,MIC,Moraxella catarrhalis,16 µg/mL
same,MIC,Moraxella catarrhalis; ATCC8176,32 µg/mL
same,MIC,Moraxella catarrhalis; ATCC8193,64 µg/mL
same,MIC,Eggerthella lenta,0.5 µg/mL
same,MIC,Eggerthella lenta; ATCC43055,0.5 µg/mL
same,MIC,P. vulgaris,> 64 µg/mL
same,MIC,"Streptococcus pyogenes; S. pyogenes MMX 946, ermR",0.25 µg/mL
same,MIC:MBC,Streptococcus pyogenes; S. pyogenes ermR,1
same,MIC,Streptococcus pyogenes; Streptococcus pyogenes,0.25 µg/mL
same,MIC,"Streptococcus pyogenes; Streptococcus pyogenes, ATCC19615",0.25 µg/mL
same,MIC,"Streptococcus pyogenes; Streptococcus pyogenes, read-out: MIC (median)",0.25 µg/mL
same,Reduction in MRSA biofilm titer,[5]; >20 μg/ml dose,3 log10 CFU/ml
same,Reduction in MRSA biofilm titer versus control,[5]; doses 1 to 10 μg/ml,approximately 2 log10 CFU/ml
same,Concentrations with statistically significant reduction versus control biofilm,"[5]; two-way ANOVA, Bonferroni",≥ 22 µg/mL
same,MIC,H. parainfluenzae,64 µg/mL
same,MIC,"Acinetobacter baumannii; A. baumannii MMX 6974, colistinR",> 64 µg/mL
same,MIC,Acinetobacter baumannii; Acinetobacter baumannii,> 64 µg/mL
same,MIC,"Acinetobacter baumannii; Acinetobacter baumannii, NCTC13304",> 64 µg/mL
same,MIC,S. marcescens,> 64 µg/mL
same,MIC,MSSA ATCC 29213,1 µg/mL
same,MIC:MBC,"Enterococcus faecalis; E. faecalis VSE, MBC on one organism",>8
same,MIC,"Enterococcus faecalis; E. faecalis VanA VRE, 1 isolate",128 µg/mL
same,MIC,Enterococcus faecalis; Enterococcus faecalis,1 µg/mL
same,MIC,"Enterococcus faecalis; Enterococcus faecalis, ATCC29212",2 µg/mL
same,MIC,"Enterococcus faecalis; Enterococcus faecalis, VRE",128 µg/mL
same,MIC,"Enterococcus faecalis; Enterococcus faecalis, read-out: MIC (median)",1.5 µg/mL
same,MIC,Staphylococcus hominis,0.5 µg/mL
same,MIC,Staphylococcus hominis; ATCC27844,0.5 µg/mL
same,MIC,C. freundii,> 64 µg/mL
same,MIC,Burkholderia cepacia,> 64 µg/mL
same,MIC,"Streptococcus oralis; S. oralis MGS, 1 isolate",0.5 µg/mL
same,MIC,Streptococcus oralis; Streptococcus oralis,0.5 µg/mL
same,MIC,P. mirabilis,> 64 µg/mL
